In US20060045880A1 (priority 2004, published 2006):

Legend:
APJ transcript = test: Antisense morpholino loss-of-function in frog embryos (APJ); type: in vivo, Xenopus laevis
Method: One antisense morpholino oligonucleotide, designed to block translation from both copies of the APJ transcript, was targeted immediately upstream of the initiation ATG: apj 5′-[…]-3′ (SEQ ID NO:9).
The 5 base pair mismatch control sequence for the apj morpholino oligonucleotide (apjmm) is: apjmm 5′-AAGcCTcTGTGcAAcCAATAcAAAG-3′ (SEQ ID NO:10); the mismatch bases indicated in lowercase.
(§1) Morpholino oligonucleotides were reconstituted in 50 mM HEPES buffer (pH 8.0) and injected into the frog embryo. The ap1 MO was injected at 15 ng per embryo, and the ap2 and apj MOs were injected at 7.5 ng. Mismatch controls, ap2 mm and apjmm, were used at twice the experimental dose (15 ng). The MOs were injected into one cell of a 2 cell embryo together with Texas Red Dextran (10 ng; Molecular Probes) as a lineage tracer. Embryos were grown to stage 35 when they were assayed by in situ hybridization using the vascular marker, erg.

apelin transcript = test: Antisense morpholino loss-of-function in frog embryos (apelin); type: in vivo, Xenopus laevis
Method: Loss-of-function experiments were performed using antisense morpholino oligonucleotides (MOs) (Gene Tools, Philomath, Oreg.), and the results are shown in FIG. 9. All morpholino oligonucleotides were designed based on recommendations from Gene Tools.
as §1

apelin expression = test: Apelin expression in cardiac myocytes under cobalt chloride (hypoxia mimic), PCR; type: cell-based, rat
Method: Preliminary experiments were carried out using primary rat cardiomyocyte cells in culture and treatment with cobalt chloride. This procedure is accepted as an equivalent to culturing cells under hypoxic conditions because HIF-1α is a metal responsive transcription protein (Ladoux and Frelin, 1994; Piret et al., 2002; Maxwell and Salnikow, 2004). Fetal rat cardiac myocytes were plated and cultured in DMEM (Invitrogen, Carlsbad, Calif.) supplemented with 10% fetal calf serum and penicillin/streptomyocin at 37° C. After four days of culture, medium was removed, and cells were treated with fresh media containing 150 μM Cobalt Chloride (Piret et al., 2002). […] After 4 hours of culture, cells were harvested, and total RNA was extracted using the Trizol procedure according to the manufacturers recommendations (Invitrogen, Carlsbad, Calif.).
Following PCR, amplification products were fractionated on an agarose gel and visualized using ethidium bromide staining under ultraviolet light (FIG. 12).
The myocytes were grown in the presence of Cobalt chloride (30 μg/ml). A control known to be non-responsive to hypoxic conditions was used (β-actin), as well as two positive controls which are known to be responsive to hypoxic conditions (VEGF and GLUTI).

BAE/APJ#2 cells [1] = test: BAE/APJ#2 cell proliferation, BrdU incorporation; type: cell-based, bovine; set-up: effect on VEGF-mediated proliferation: dose or concentration left out as unconfirmed
Method: (§2) Bovine aortic endothelial cells (BAE) were cultured in DMEM supplemented with 10% fetal bovine serum (FBS) and penicillin/streptomycin. For generation of stable cell lines expressing APJ, the mouse APJ coding region was cloned into the pcDNA 3.1 vector downstream of the CMV promoter, in frame with a myc epitope at the C-terminal end of the protein, and upstream of the neomycin gene. Bovine aortic endothelial (BAE) cells were transfected with this construction using the Superfect transfection kit (Qiagen) and selected for resistance to G418 (600 μg/ml). Colonies were isolated and screened using RT-PCR for expression of mouse APJ and also by immunocytochemistry for expression of the myc epitope.

[2] = tested on: mouse endothelial cells (bEnd3); test: bEnd3 cell proliferation, BrdU incorporation; type: cell-based
Method: Similar cellular proliferation assays were performed using mouse endothelial cells (bEnd3) that constitutively express APJ. […] SU1498 was included in proliferation cultures at a 25 μM concentration, and results were assayed using BrdU incorporation.
Proliferation inhibition experiments with the bEnd3 cells also were carried out using FGF (50 ng/ml) or the FGF pathway inhibitor SU5402 (FIG. 19). SU5402 was included in proliferation cultures at a 20 μM concentration, and results were assayed using BrdU incorporation.

BAE/APJ#2 cells [3] = details: 10 ng/ml in bottom chamber, 16 hours
Method: as §2
Cell migration assays were performed using Transwell cell culture migration chambers (Becton Dickinson) with 8 micron pore size. BAE/APJ#2 cells were plated in serum free conditions in 100 μl at a concentration of 1×10^5 ml in the upper chamber of the migration chamber. Following cell attachment to the membrane, 10 ng/ml of growth factor was added to the bottom chamber, in a total volume of 0.5 ml. […] Cells attached to the membrane in the lower chamber were stained with DAPI, and 3 random fields were counted for each experimental condition.

5′-AAGGCTGTGTGGAAGCAATAGAAAG-3′ (all phosphorodiamidate morpholino (PMO)) [antisense morpholino to the APJ receptor]
embryos with decrease in angiogenic growth of blood vessels (APJ transcript; 7.5 ng, N=48, stage 35): 71 % of the embryos

5′-AAGcCTcTGTGcAAcCAATAcAAAG-3′ (antisense AAGCCTCTGTGCAACCAATACAAAG; all phosphorodiamidate morpholino (PMO)) [apjmm]
alteration in the vascular growth of the embryos (APJ transcript; mismatch control, 15 ng): did not produce a detectable alteration

5′-GATTCATGTTTCTTGTGGCTGAGTG-3′ (all phosphorodiamidate morpholino (PMO)) [ap2]
embryos with loss of intersomitic vessel formation (apelin transcript; 7.5 ng, N=64, stage 35): 63 % of the embryos

5′-GATTgATcTTTgTTGTGcCTcAGTG-3′ (antisense GATTGATCTTTGTTGTGCCTCAGTG; all phosphorodiamidate morpholino (PMO)) [ap2 mm]
alteration in the vascular growth of the embryos (apelin transcript; mismatch control, 15 ng): did not produce a detectable alteration

5′-GTGCCCAAAGTCTGAGATTCATGTT-3′ (all phosphorodiamidate morpholino (PMO)) [ap1]
embryos with inhibition of angiogenic growth of embryonic blood vessels (apelin transcript; 15 ng per embryo, N=76, stage 35): 67 % of the embryos

[Cl][Co][Cl] [Cobalt Chloride]
apelin expression (PCR) (apelin expression; 150 μM Cobalt Chloride, 4 hours, fetal rat cardiac myocytes): significantly increased
apelin expression (apelin expression; Cobalt chloride 30 μg/ml, rat cardiac myocytes): induced

CC(C)c1cc(/C=C(\C#N)C(=O)NCCCc2ccccc2)cc(C(C)C)c1O [SU1498]
effect on VEGF-mediated proliferation (BAE/APJ#2 cells [1]; SU1498): partially inhibits
effect on apelin-mediated proliferation (BAE/APJ#2 cells [1]; SU1498 10 ng/ml): no significant effect
effect on VEGF-mediated proliferation ([2]; bEnd3, SU1498 25 μM, VEGF 50 ng/ml): partially inhibits
effect on apelin-mediated proliferation ([2]; bEnd3, SU1498 25 μM, apelin 10 ng/ml): no significant effect

Cc1c[nH]c(/C=C2\C(=O)Nc3ccccc32)c1CCC(=O)O [SU5402]
effect on the proliferative effect of FGF ([2]; bEnd3, SU5402 20 μM, FGF 50 ng/ml): partially inhibited
effect on apelin-stimulated cellular proliferation ([2]; bEnd3, SU5402 20 μM, apelin 10 ng/ml): did not have a significant effect

VEGF
endothelial cell migration (cells per field) (BAE/APJ#2 cells [3]): increase in migration
cellular proliferation of endothelial cells ([2]; bEnd3, apelin 10 ng/ml, VEGF 50 ng/ml, FIG. 17 0.1 ng/ml to 1 μg/ml): proliferate
